Here are results for 62 compounds from a melting point compilation (Tetko et al.; mined from patent text by program, amines drawn as free bases though some values may be those of a salt).

Molecules are shown by their SMILES. Where only a bound is given, the exact number is not on record here.

As for `O=Cc1cc2ccccc2nc1N1CCN(CC2CCCCC2)CC1`, the melting point was 54 to 55 °C. The result for `CCc1cc(=O)c(C(=O)OC)c(CC)[nH]1` reads 124 to 127 °C. Under `N#Cc1cnn(-c2cc(Cl)c(Cl)c(Cl)c2Cl)c1N` stands 168 to 169 °C; under `CCOC(=O)ON=C(N)c1cccc(Oc2ccc3c(c2)S(=O)(=O)N=C2CCCN23)c1`, 101 to 105 °C. The result for `COc1ccccc1N1CCN(c2cc3nc(C(=O)O)c(=O)[nH]c3cc2[N+](=O)[O-])CC1` reads 204 to 206 °C; that for `COc1cc(-c2ccc(O)c(C(C)(C)C)c2)cc(C=C2SC(N(C)C)=NC2=O)c1O`, 272 to 274 °C.

As to `S=c1nc2c(Cl)cccn2c(=S)n1-c1ncccc1Cl`, the melting point lay within 120 to 122 °C. The result for `CCCCCCCCCCCCOC(=O)CS(=O)(=O)Nc1c(C(C)C)cccc1C(C)C` reads 58 to 59 °C; that for `CS(=O)(=O)Nc1ccc(C=O)cc1F`, 151 °C; that for `Nc1cc(=O)[nH]c2ccccc12`, > 250 °C. `CCOC(=O)c1c(C)[nH]c2ccc(OCC3CO3)cc12` (configuration not stated): the melting point was 93 to 94 °C. The result for `N#Cc1ccc(Oc2cc3c(cc2Cl)C=C(C(=O)O)C(C(F)(F)F)O3)cc1` (configuration not stated) reads 212 to 216 °C; that for `N#CCn1nnc(N)n1`, 105 to 106 °C; that for `COc1ccccc1NC(=O)Nc1nc(Nc2ccccc2-c2ccccc2)nc(N(CC(=O)O)Cc2ccc(OC)c(OC)c2)n1`, 115 to 120 °C.

For the compound `NS(=O)(=O)Oc1ccc(C(=O)c2ccc(OS(N)(=O)=O)cc2)cc1`, the melting point was 182 to 185 °C.

Turning to `O=C1c2ccccc2C(=O)N1Oc1ccc([N+](=O)[O-])cc1C(F)(F)F`, the melting point was determined as 190 °C.

`CCOC(=O)c1cnc2[nH]c(-c3cc(OCc4ccccc4)ccc3OC(C)C)nc2c1` yielded a melting point of 138 to 140 °C. The result for `CC(=O)CCN(CCN)c1nc2cc(Cl)ccc2o1` reads 126 °C; that for `O=C1c2ccccc2C(=O)N1CCN1CCN(C(c2ccc(F)cc2)c2ccc(F)cc2)CC1`, 125 to 126 °C; that for `O=C(O)C=Cc1cc([N+](=O)[O-])ccc1Br`, 185 °C. Under `Cc1noc(-c2cn(-c3cccc(-c4ccccc4OC(F)(F)F)c3)cn2)n1` stands 142 to 144 °C; under `CCCC12C=CC=CC1C(=O)N(c1nc(C#N)c(C#N)[nH]1)C2=O` (configuration not stated), 134 to 135 °C; under `Cc1sc(-c2ccccc2)nc1CCOc1ccc(C[C@@H](C(=O)O)n2cccc2)cc1`, 157 to 158 °C. `Clc1ccc2c(c1)N=C(NCc1cccnc1)c1ccccc1O2` yielded a melting point of 167 to 169 °C. Under `CS(=O)(=O)NC(=O)c1ccc(OCCn2ccnc2)cc1` stands 198 to 199 °C. The result for `O=C1CCCc2ccccc2N1Cc1cccc(Br)c1` reads 81 to 82 °C. Under `O=C(NO)[C@H]1CN(C(=O)Nc2ccccc2)CCN1S(=O)(=O)c1ccc(-c2ccc(F)cc2)s1` stands 187 to 188 °C; under `COc1cc(COc2nn(-c3ccccc3)cc2C(N)=O)ccc1OCc1nc(-c2ccco2)oc1C`, 175 to 176 °C. As for `Cc1cc([N+](=O)[O-])nc(C)c1C(N)=O`, the melting point is 179 to 180 °C. `CC(C)(O)CCOc1c(-c2ccc(S(N)(=O)=O)cc2)cnn(-c2ccc(F)c(Cl)c2)c1=O` displayed a melting point of 59 to 62 °C.

For the compound `NS(=O)(=O)c1ccc(-n2nc(C(F)F)cc2-c2nc3ccc(Cl)cc3s2)cc1`, the melting point lay within 242 to 244 °C. The result for `CCOC(=O)C(C)(C)Cc1c(SC(C)(C)C)c2cc(O)ccc2n1Cc1ccc(Cl)cc1` reads 151 to 152 °C; that for `Cn1cc(C2=C(c3cn(CCCS)c4ccccc34)C(=O)NC2=O)c2ccccc21`, 155 to 157 °C; that for `CCCc1ccc(N2CCC(O)CC2)nn1`, 138 to 140 °C. Under `O=C(CCCc1ccccc1)N[C@H](Cc1cccc(C(F)(F)F)c1)[C@@H](O)c1ccc(F)cc1` (racemic) stands 110 to 111 °C; under `CC(C)(C)C(=O)NCCCN(CCCNC(=O)C(C)(C)C)c1ccccc1`, 72 °C; under `CCCc1c(OCCCCCc2c(Cl)ccc(OC)c2OC)ccc(C(=O)O)c1O`, 140 to 142 °C.

`CCN(CC)C(=O)CCC(=O)c1cccc(C)c1N` gave a melting point of 104 °C. Under `Cc1cc([N+](=O)[O-])ccc1N=C1SCC2(CCCC2)N1CC1CCCCC1` stands 85 to 87 °C; under `Cc1cc(F)cc2c(=O)c(C(=O)O)cn(CC(F)(F)F)c12`, 198 to 201 °C. Under `O=C(O)CCCc1cc2nc(Cl)ccc2n1S(=O)(=O)c1ccc(-c2cscn2)cc1` stands 211 to 217 °C; under `COc1ccc(C2=NN(C3CCN(C(=O)CN4C(=O)c5ccccc5C4=O)CC3)C(=O)C(C)(C)C2)cc1OC`, 193 to 194 °C; under `O=C(O)[C@H](Cc1ccc(C(F)(F)F)cc1)[C@@H](O)c1cccc2ccccc12` (racemic), 151 to 152 °C. The result for `COC(=O)Cn1nnnc1-c1c(Cl)c(Cl)cc2[nH]c(=O)c(=O)[nH]c12` reads 281 to 283 °C; that for `CCCc1nc(C=O)c(C(=O)OCC)n1Cc1cc2c(cc1Cl)OCO2`, 105 °C. In turn, `O=C(NCc1ccc(Cl)cc1)c1cn2c3c(cc(CN4CCOCC4)cc3c1=O)OCCC2` came in with a melting point of 195 to 197 °C. The result for `CCOc1cccnc1CSCCNC(=C[N+](=O)[O-])NC` reads 130 to 131 °C; that for `Oc1ccc(-c2nc3cc(O)cc(Br)c3o2)c(F)c1`, 248 to 250 °C.

As for `CNC(=O)n1sc(N(C)C)nc1=O`, the melting point stood at 164 °C.

Take `COCCOc1ccc2ccc(N)nc2n1`: the melting point came out at 176 °C. Take `COc1ccc(C2=NN(CCO)C(=O)[C@H]3CCCC[C@@H]23)cc1OC` (relative stereo): the melting point lay in the range of 128 to 129 °C. The result for `Nc1c(SC(F)(F)F)nc(Br)n1-c1c(Cl)cc(C(F)(F)F)cc1Cl` reads 154 °C; that for `CC(C)(C)N(NC(=O)c1ccccc1)C(=O)c1cccs1`, > 200 °C.

Take `CCOCCC(=O)C=P(c1ccccc1)(c1ccccc1)c1ccccc1`: the melting point lay in the range of 63 to 65 °C. The result for `O=c1oc2ccccc2nc1-c1cc(O)c(O)c([N+](=O)[O-])c1` reads 120 °C.

Turning to `COC(=O)c1cc2c(C)ccc(C)c2n1OC`, the melting point is 90 to 91 °C. Under `CC(C)Oc1cc(COc2cc(CCC(=O)O)n(C)n2)cc(COc2ccc(Cl)cc2Cl)c1` stands 105 to 106 °C; under `CC(=O)Nc1ccc(OC(=O)CO)cc1`, 144 to 146 °C. Under `CN(C(CCn1c(=O)[nH]c2ccsc2c1=O)C(=O)NO)S(=O)(=O)c1ccc(Oc2cccc(Cl)c2)cc1` (configuration not stated) stands 192 to 194 °C; under `COc1ccccc1N1CCN(CCCCOc2ccc(-c3cn4cccnc4n3)cc2)CC1`, 151 to 153 °C; under `O=C(Nc1ccccc1)NC(Cc1c[nH]c2ccccc12)C(=O)NCc1cc(C(F)(F)F)cc(C(F)(F)F)c1` (configuration not stated), 219 to 221 °C. Under `COc1cc2nc(O)nc(O)c2c(OC)c1OC` stands > 250 °C.
